Here are results for five molecules from patent publication US20190218479A1, “Stabilized Liquid Peroxide Compositions” (Novozymes A/S, priority 2016, published 2019).

What all share (assay type): physicochemical
For data set [1], the target named is T1, Subtilisin1 (Lederbergia lenta, UniProt P29600, M216S). In words: Residual activity of Subtilisin1 after storage in peroxide model detergents with or without subtilisin stabilizers (N,N-dimethylcasein/TNBS).
The target in data set [2] is T1, Subtilisin1. The description is as above. The following applies: model detergents with hydrogen peroxide, pH 7 and 9; summary of Example 2. From the text:
Chemicals used as buffers and substrates were commercial products of at least reagent grade. Subtilisin1 has the amino acid sequence as shown in SEQ ID NO: 2, which is a subtilisin having a M216 substitution according to the invention. Subtilisin2 has the amino acid sequence as shown in SEQ ID NO: 1, which is a reference subtilisin not covered by the invention. The stock solution of each subtilisin contains 4.4% w/w of active enzyme protein. Stabilizer1: Cbz-Gly-Ala-Tyr-H (C-terminal aldehyde), wherein Cbz is benzyloxycarbonyl; which is a subtilisin stabilizer according to the invention. When used in the examples below, Stabilizer1 was added to the subtilisin stock solution at a concentration of 0.28% w/w. Stabilizer2: Cbz-Gly-Ala-NHCH(CH2C6H4pOH)CH(OH)(OSO3)Na (hydrosulfite adduct of a C-terminal aldehyde) wherein Cbz is benzyloxycarbonyl; which is a subtilisin stabilizer according to the invention. When used in the examples below, Stabilizer2 was added to the subtilisin stock solution at a concentration of 0.35% w/w. Stabilizer3: MeOCO-Val-Ala-Leu-H (C-terminal aldehyde). When used in the examples below, Stabilizer3 was added to the subtilisin stock solution at a concentration of 0.28% w/w. Stabilizer4: 4-formyl-phenyl-boronic acid (4-FPBA); which is a reference protease stabilizer not covered by the invention. When used in the examples below, Stabilizer4 was added to the subtilisin stock solution at a concentration of 3.4% w/w.
(§1) The compositions were prepared as shown in the examples and samples stored in closed vials for storage. Residual activity was measured by comparing activity in a stored sample at the time of taken out of incubation without freezing and comparing activity to a freshly prepared sample without peroxide and dividing activity in the stored sample with activity in the fresh sample.
(§2) Activity analysis is performed by analysing protease activity by hydrolysis of N,N-dimethylcasein to produce a carboxylic acid and a primary amine compounds. The primary amines that are formed react, under alkaline conditions, with tri-nitrobenzenesulfonic acid (TNBS) to form a colored complex. The amount of colored complex that forms over the fixed reaction period at a constant temperature (530 seconds at 40° C.; complex absorbance is measured at 405 nm) is related to the amount of active protease present in the sample. The amount of colored product complex produced is compared to a standard curve based on known protease concentrations to calculate the amount of active protease in the detergent sample. The amount of protease activity at a specific time point is compared to the t=0 activity level to calculate the % active protease remaining.
This study examined Subtilisin1 stability in the presence of hydrogen peroxide, with and without subtilisin stabilizers (Stabilizer4 and Stabilizer2) in two different model detergents at pH 7 and 9.

A short description of data set [3]: Stability of Subtilisin1 and Subtilisin2 in the liquid peroxide composition of Table 1 (residual protease activity, N,N-dimethylcasein/TNBS). Conditions: liquid peroxide composition in Table 1 (0.8% H2O2, pH 7.0), 4 weeks. The protocol:
as §1, §2

Data set [4] is described as follows: Residual hydrogen peroxide after storage, permanganate titration. The following applies: liquid peroxide composition in Table 1, 37° C., 4 weeks. The protocol:
Residual hydrogen peroxide (H2O2) was measured by permanganate titration (reduction of potassium permanganate by hydrogen peroxide in sulfuric acid).

Setting [5] is: Subtilisin1 in “Mix Laundry” (Table 19, pH 7.5) no H2O2, no sodium salicylate, no polyDADMAC.
[6] abbreviates: Subtilisin1 in “Mix Laundry” (Table 19, pH 7.5) with 1% H2O2, with sodium salicylate, with polyDADMAC.
[7] abbreviates: Subtilisin1 in “NI pretreat” (Table 19, pH 7.0) with 1% H2O2, with sodium salicylate, with polyDADMAC.
The mark [8] stands for this setting: Subtilisin1 in “NI pretreat” (Table 19, pH 7.0) without H2O2, no sodium salicylate, no polyDADMAC.

T1 sequence (P29600 whole entry M216S): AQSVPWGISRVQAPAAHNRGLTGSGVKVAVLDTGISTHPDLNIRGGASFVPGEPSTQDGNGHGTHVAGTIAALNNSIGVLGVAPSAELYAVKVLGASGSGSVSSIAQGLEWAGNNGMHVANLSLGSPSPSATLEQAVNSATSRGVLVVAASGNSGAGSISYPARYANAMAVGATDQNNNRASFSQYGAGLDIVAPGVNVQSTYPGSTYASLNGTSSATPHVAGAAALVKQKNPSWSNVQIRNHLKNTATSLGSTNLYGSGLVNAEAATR

As for MeOCO-Val-Ala-Leu-H [Stabilizer3], the figures for the “Residual activity after storage for 2 weeks at 30° C.” value (from here on “Residual activity … at 30° C.”) at Subtilisin1 [1] (setting [5]) and on Subtilisin1 [1] (setting [6]) were 83% and 60%, respectively. For the same molecule, the “Residual activity after storage for 2 weeks at 37° C.” value (“Residual activity … at 37° C.” for short) is given as 64% on Subtilisin1 [1] (setting [7]) and 95% on Subtilisin1 [1] (setting [8]).

Take `O=BOB(O)OB(O)OB=O` [borax, reference compound]: the “Residual activity … at 30° C.” value was 81% at Subtilisin1 [1] (setting [5]) and 43% at Subtilisin1 [1] (setting [6]). The entries for the “Residual activity … at 37° C.” value on Subtilisin1 [1] (setting [7]) and on Subtilisin1 [1] (setting [8]) were 22% and 117%, respectively.

Take `O=Cc1ccc(B(O)O)cc1` [Stabilizer4, 4-formyl-phenyl-boronic acid, reference compound]: the “Residual activity … at 30° C.” value came to 86% at Subtilisin1 [1] (setting [5]) and 20% at Subtilisin1 [1] (setting [6]). For the same molecule, the “Residual activity … at 37° C.” value came to 11% on Subtilisin1 [1] (setting [7]) and 129% at Subtilisin1 [1] (setting [8]).

Take “Cbz-Gly-Ala-NHCH(CH2C6H4pOH)CH(OH)(OSO3)Na [Stabilizer2]”: the “stabilization of Subtilisin1, compared to Stabilizer4” value at Subtilisin1 [2] is “much more effective stabilization”. Moreover, the results for the “Residual activity … at 30° C.” value on Subtilisin1 [1] (setting [5]) and on Subtilisin1 [1] (setting [6]) were 83% and 52%, respectively. The entries for the “Residual activity … at 37° C.” value at Subtilisin1 [1] (setting [7]) and at Subtilisin1 [1] (setting [8]) were 61% and 98%, respectively.

B1: Subtilisin2: subtilisin with amino acid sequence SEQ ID NO: 1, reference subtilisin not covered by the invention (protein, listed as Bacillus lentus)
chain: AQSVPWGISRVQAPAAHNRGLTGSGVKVAVLDTGISTHPDLNIRGGASFVPGEPSTQDGNGHGTHVAGTIAALNNSIGVLGVAPSAELYAVKVLGASGSGSVSSIAQGLEWAGNNGMHVANLSLGSPSPSATLEQAVNSATSRGVLVVAASGNSGAGSISYPARYANAMAVGATDQNNNRASFSQYGAGLDIVAPGVNVQSTYPGSTYASLNGTSMATPHVAGAAALVKQKNPSWSNVQIRNHLKNTATSLGSTNLYGSGLVNAEAATR
Take B1: the “% Subtilisin residual activity after 4 weeks” value came out at 35% in data set [3] (22° C.), 33% in data set [3] (30° C.) and 15% in data set [3] (37° C.). Besides, the “Residual H2O2 after 4 weeks” value in data set [4] was 95.8%.
